Literature values in patent US12440530B2, “Skin solution with solubilized bakuchiol” (Envy Medical, Inc., priority 2013, dated 2025).

Key:
facial acne vulgaris = conditions: in vivo

Row | Compound | solubility in water | inflammatory (papules, cysts) and noninflammatory (blackheads) lesions (facial acne vulgaris) | study subjects with partial or total clearing of acne-related post inflammatory hyperpigmentation (PIH) (facial acne vulgaris)
1 | CC(C)=CCC[C@](C)(O)C1CC=C(C)CC1 (stereo partly shown) [bisabolol] | very insoluble in water | – | –
2 | C=C[C@@](C)(/C=C/c1ccc(O)cc1)CCC=C(C)C [Bakuchiol, bakuchiol] | very insoluble in water | significant reductions | Forty-five
